Measured values: patent US10947252B2, “Inhibitors of KEAP1-Nrf2 protein-protein interaction” (Janssen Pharmaceutica NV, priority 2018, dated 2021)

Assays:
[1] = target: Kelch domain of human KEAP1 (321-624 aa) (Homo sapiens (Human), UniProt Q14145); assay: KEAP1 KELCH ThermoFluor binding assay; conditions: KEAP Kelch […], 1,8-ANS, pH 7.0, average of results obtained, read-out: Tf Kd;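 further: Ligand-induced melting temperature shift of E. coli-expressed KEAP1 Kelch protein, Kd estimated from concentration-response curves of ΔTm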
[2] = test system: Glo-Response ARE-luc2P HEK293 cell line; assay: ARE luciferase reporter cell-based assay; conditions: Homo sapiens, HEK293, 24 h, average of results obtained;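 further: luciferase signal tracks Nrf2 activation of the ARE once compounds disrupt KEAP1-Nrf2 binding, read with One-Glo reagent, DMSO serving as low control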

Chain of Kelch domain of human KEAP1 (321-624 aa) (Q14145 321-624): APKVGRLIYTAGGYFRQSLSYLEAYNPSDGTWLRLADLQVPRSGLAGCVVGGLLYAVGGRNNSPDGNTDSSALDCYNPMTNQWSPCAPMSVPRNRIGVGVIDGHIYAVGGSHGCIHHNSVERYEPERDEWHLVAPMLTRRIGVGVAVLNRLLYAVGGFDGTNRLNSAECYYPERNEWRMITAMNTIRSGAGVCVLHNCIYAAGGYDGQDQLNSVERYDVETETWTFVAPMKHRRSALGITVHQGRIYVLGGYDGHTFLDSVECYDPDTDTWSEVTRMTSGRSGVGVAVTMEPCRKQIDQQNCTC

Row | SMILES | Kd [1] | EC50 [2]
1 | CCc1c([C@@H](CC(=O)O)c2ccc(C)c(CN3C[C@H]4CCCCN4c4ncc(C)cc4S3(=O)=O)c2)ccn2c(C(F)(F)F)nnc12 (single isomer, unassigned) [Example 516, (*S)-3-(8-Ethyl-3-(trifluoromethyl)-[1,2,4]triazolo[4,3-a]pyridin-7-yl)-3-(4-methyl-3-(((*R)-3-methyl-5,5-dioxido-7,7a,8,9,10,11-hexahydro-6H-dipyrido[2,1-d:2′,3′-f][1,2,5]thiadiazepin-6-yl)methyl)phenyl)propanoic Acid] | < 0.001 µM | 0.0111 µM
2 | Cc1ccc([C@@H](CC(=O)O)c2ccn3c(C(F)(F)F)nnc3c2C)nc1CN1C[C@@H]2CCCCN2c2ncc(Cl)cc2S1(=O)=O (single isomer, unassigned) [Example 519, (*S)-3-(6-(((*S)-3-Chloro-5,5-dioxido-7,7a,8,9,10,11-hexahydro-6H-dipyrido[2,1-d:2′,3′-f][1,2,5]thiadiazepin-6-yl)methyl)-5-methylpyridin-2-yl)-3-(8-methyl-3-(trifluoromethyl)-[1,2,4]triazolo[4,3-a]pyridin-7-yl)propanoic Acid] | < 0.001 µM | 0.016 µM
3 | Cc1ccc([C@@H](CC(=O)O)c2ccn3c(C(F)(F)F)nnc3c2C)nc1CN1C[C@H]2CCCCN2c2ncc(Cl)cc2S1(=O)=O (single isomer, unassigned) [Example 520, (*S)-3-(6-(((*R)-3-Chloro-5,5-dioxido-7,7a,8,9,10,11-hexahydro-6H-dipyrido[2,1-d:2′,3′-f][1,2,5]thiadiazepin-6-yl)methyl)-5-methylpyridin-2-yl)-3-(8-methyl-3-(trifluoromethyl)-[1,2,4]triazolo[4,3-a]pyridin-7-yl)propanoic Acid] | < 0.001 µM | 0.0156 µM
4 | Cc1ccc([C@H](CC(=O)O)c2ccn3c(C(F)(F)F)nnc3c2C)nc1CN1C[C@@H]2CCCCN2c2ncc(Cl)cc2S1(=O)=O (single isomer, unassigned) [Example 521, (*R)-3-(6-(((*S)-3-Chloro-5,5-dioxido-7,7a,8,9,10,11-hexahydro-6H-dipyrido[2,1-d:2′,3′-f][1,2,5]thiadiazepin-6-yl)methyl)-5-methylpyridin-2-yl)-3-(8-methyl-3-(trifluoromethyl)-[1,2,4]triazolo[4,3-a]pyridin-7-yl)propanoic Acid] | < 0.001 µM | 0.00197 µM

Continued, in another order:

Row | Kd [1] | SMILES | EC50 [2]
5 | < 0.001 µM | Cc1ccc([C@@H](CC(=O)O)c2ccn3c(C(F)(F)F)nnc3c2C)nc1CN1CC2(CC2)Oc2ncc(F)cc2S1(=O)=O (single isomer, unassigned) [Example 509, (*S)-3-(6-((8′-Fluoro-1′,1′-dioxidospiro[cyclopropane-1,4′-pyrido[2,3-b][1,4,5]oxathiazepin]-2′(3′H)-yl)methyl)-5-methylpyridin-2-yl)-3-(8-methyl-3-(trifluoromethyl)-[1,2,4]triazolo[4,3-a]pyridin-7-yl)propanoic Acid] | 0.0704 µM
6 | < 0.001 µM | Cc1ccc([C@H](CC(=O)O)c2ccn3c(C(F)(F)F)nnc3c2C)nc1CN1CC2(CC2)Oc2ncc(F)cc2S1(=O)=O (single isomer, unassigned) [Example 510, (*R)-3-(6-((8′-Fluoro-1′,1′-dioxidospiro[cyclopropane-1,4′-pyrido[2,3-b][1,4,5]oxathiazepin]-2′(3′H)-yl)methyl)-5-methylpyridin-2-yl)-3-(8-methyl-3-(trifluoromethyl)-[1,2,4]triazolo[4,3-a]pyridin-7-yl)propanoic Acid] | 0.314 µM
7 | < 0.001 µM | Cc1ccc([C@@H](CC(=O)O)c2ccn3c(C(F)F)nnc3c2C)cc1CN1CC2(CCOCC2)Oc2ccc(F)cc2S1(=O)=O (single isomer, unassigned) [Example 525, (*R)-3-(3-(Difluoromethyl)-8-methyl-[1,2,4]triazolo[4,3-a]pyridin-7-yl)-3-(3-((8-fluoro-1,1-dioxido-2′,3′,5′,6′-tetrahydrospiro[benzo[b][1,4,5]oxathiazepine-4,4′-pyran]-2(3H)-yl)methyl)-4-methylphenyl)propanoic Acid] | 0.0388 µM
